Test results taken from publication PMC12900291 (European journal of medicinal chemistry, 2025).
“And” between values parts separate entries of the source, which are not always exact repeats. Equal entries are not always repeated.

Target: SERCA2a (Sus scrofa, UniProt P11607)
Assay: NADH-coupled enzyme-linked Ca2+-ATPase activity assay in cardiac SR vesicles
Type: biochemical, porcine
Conditions: Ca2+-ATPase activity, [Ca2+]MAX (pCa 5.4), vs no compound; mean±SD, n=4-6

Sequence of SERCA2a (P11607 1-997 isoform P11607-2): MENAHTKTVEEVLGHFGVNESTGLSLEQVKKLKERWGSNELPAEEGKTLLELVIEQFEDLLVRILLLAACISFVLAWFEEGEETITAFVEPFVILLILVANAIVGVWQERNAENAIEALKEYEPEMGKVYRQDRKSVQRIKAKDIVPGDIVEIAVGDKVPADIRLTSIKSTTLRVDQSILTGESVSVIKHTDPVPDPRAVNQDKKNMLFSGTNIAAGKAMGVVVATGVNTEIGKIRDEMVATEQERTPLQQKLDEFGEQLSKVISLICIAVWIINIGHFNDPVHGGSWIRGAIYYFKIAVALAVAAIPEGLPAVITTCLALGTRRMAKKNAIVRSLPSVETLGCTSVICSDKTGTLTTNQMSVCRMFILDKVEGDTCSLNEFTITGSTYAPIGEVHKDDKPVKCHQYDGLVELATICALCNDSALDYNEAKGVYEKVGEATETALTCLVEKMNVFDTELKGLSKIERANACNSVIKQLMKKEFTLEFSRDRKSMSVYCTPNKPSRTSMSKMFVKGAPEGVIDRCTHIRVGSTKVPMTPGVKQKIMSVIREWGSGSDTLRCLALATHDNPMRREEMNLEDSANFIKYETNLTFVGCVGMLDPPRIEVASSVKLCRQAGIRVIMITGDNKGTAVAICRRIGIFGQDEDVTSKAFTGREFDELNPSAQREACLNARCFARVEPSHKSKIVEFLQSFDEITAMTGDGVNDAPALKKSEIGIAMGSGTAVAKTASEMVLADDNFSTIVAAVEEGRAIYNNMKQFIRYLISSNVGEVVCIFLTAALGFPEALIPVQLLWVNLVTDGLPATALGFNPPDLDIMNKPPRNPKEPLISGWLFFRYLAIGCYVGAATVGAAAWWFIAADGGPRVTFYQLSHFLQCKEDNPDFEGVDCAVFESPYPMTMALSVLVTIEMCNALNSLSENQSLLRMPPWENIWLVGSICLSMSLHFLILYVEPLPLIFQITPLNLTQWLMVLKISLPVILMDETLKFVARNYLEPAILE

| SMILES | Max increase (%) |
| --- | --- |
| CCCN(Cc1ccccc1OC)C(=O)c1ccc(F)cc1 [Compound 14, 4-Fluoro-N-(2-methoxybenzyl)-N-propylbenzamide] | 55±11% |
| CCCN(Cc1ccccc1OC)C(=O)c1cc(C)cs1 [Compound 3, N-(2-Methoxybenzyl)-4-methyl-N-propylthiophene-2-carboxamide] | 45±9.2% |
| CCCN(Cc1ccccc1OC)C(=O)c1ccsc1 [Compound 5, N-(2-Methoxybenzyl)-N-propylthiophene-3-carboxamide] | 29±8.4% |
| CCCN(Cc1ccccc1OC)C(=O)c1cccs1 [Compound 4, N-(2-Methoxybenzyl)-N-propylthiophene-2-carboxamide] | 30±14% |
| CCCN(Cc1ccccc1OC)C(=O)c1cccc(F)c1 [Compound 13, 3-Fluoro-N-(2-methoxybenzyl)-N-propylbenzamide] | 53±17% |
| CCCN(Cc1ccccc1OC)C(=O)c1cccc(C)c1 [Compound 10, N-(2-Methoxybenzyl)-3-methyl-N-propylbenzamide] | 59±13% |
| CCCN(Cc1ccccc1OC)C(=O)c1cccc(OC)c1 [Compound 19, 3-Methoxy-N-(2-methoxybenzyl)-N-propylbenzamide] | 45±14% |
| CCCN(Cc1ccccc1OC)C(=O)c1ccccc1C(F)(F)F [Compound 20, N-(2-Methoxybenzyl)-N-propyl-2-(trifluoromethyl)benzamide] | 51% and 51±17% |
| CCCN(Cc1ccccc1OC)C(=O)c1cccc(Br)n1 [Compound 27, 6-Bromo-N-(2-methoxybenzyl)-N-propylpicolinamide] | 46±7.8% |
| CCCN(Cc1ccccc1OC)C(=O)c1ccc(Cl)cc1 [Compound 17, 4-Chloro-N-(2-methoxybenzyl)-N-propylbenzamide] | 64±7.6% |
| CCCN(Cc1ccccc1OC)C(=O)c1ccccc1OC [Compound 18, 2-Methoxy-N-(2-methoxybenzyl)-N-propylbenzamide] | 27±9.3% |
| CCCN(Cc1ccccc1OC)C(=O)c1ccccc1F [Compound 12, 2-Fluoro-N-(2-methoxybenzyl)-N-propylbenzamide] | 40±10% |
| CCCN(Cc1ccccc1OC)C(=O)c1ccc(Cl)s1 [Compound 6, 5-Chloro-N-(2-methoxybenzyl)-N-propylthiophene-2-carboxamide] | 37±9.4% |

Other lines, results leading:

| Max increase (%) | SMILES |
| --- | --- |
| ablated activity | CCCN(Cc1ccncc1F)C(=O)c1cc(C)c(C)s1 [Compound 50, N-((3-Fluoropyridin-4-yl)methyl)-4,5-dimethyl-N-propylthiophene-2-carboxamide] |
| 89% and 89±24% | CCCN(Cc1ccccc1F)C(=O)c1cc(C)c(C)s1 [Compound 48, N-(2-Fluorobenzyl)-4,5-dimethyl-N-propylthiophene-2-carboxamide] |
| 45±8.4% | CCN(Cc1ccccc1OC)C(=O)c1ccc(F)c(Br)c1 [Compound 53, 3-Bromo-N-ethyl-4-fluoro-N-(2-methoxybenzyl)benzamide] |
| 24±9.1% | COc1ccccc1CNC(=O)c1cc(C)c(C)s1 [Compound 30, N-(2-methoxybenzyl)-4,5-dimethylthiophene-2-carboxamide] |
| 46±7.4% | CCN(Cc1ccccc1OC)C(=O)c1cccc(Br)c1F [Compound 52, 3-Bromo-N-ethyl-2-fluoro-N-(2-methoxybenzyl)benzamide] |
| 46±8.9% | COc1ccccc1CN(C(=O)c1cc(C)c(C)s1)C1CC1 [Compound 35, N-Cyclopropyl-N-(2-methoxybenzyl)-4,5-dimethylthiophene-2-carboxamide] |
| 91% and 91±12.6% | COc1ccccc1CN(CCC(F)F)C(=O)c1cc(C)c(C)s1 [Compound 40, N-(3,3-Difluoropropyl)-N-(2-methoxybenzyl)-4,5-dimethylthiophene-2-carboxamide] |
| 52±9.2% | COc1ccccc1CN(C)C(=O)c1cc(C)c(C)s1 [Compound 31, N-(2-Methoxybenzyl)-N,4,5-trimethylthiophene-2-carboxamide] |
